US20030166656A1, “Therapeutic or preventive medicines for mood disorders or anxiety disorders” (priority 2003, published 2003)

Assays:
[1] = system: male SD rats; experiment: Elevated plus-maze test in rats (antianxiety effect); assay type: in vivo, rat; settings: for antianxiety effect: overall conclusion in words, elevated plus-maze test
Source text: (§1) The isoquinoline derivative rep-resented by formula (I) has a marked effect in the forced swim test, which is the animal model for mood disorder, and in the elevated plus-maze test, which is the animal model for anxiety disorder. Thus, the isoquinoline derivative can be used as a drug for curing or preventing mood disorder or anxiety disorder of mammal and, in particular, human beings. It may also be used in manufacturing of a medicament for curing or preventing mood disorder or anxiety disorder. The evaluation using the above-described animal models can be conducted by a method described in published references [Nature vol. 266, 730 (1977) or Jpn. J. Psychopharmacol vol. 15, 125 (1995)], but the method is not limited to this.
Assessment of Antianxiety Effect by the Elevated Plus-Maze Test in Rats
The experiment was conducted on male SD rats. In the elevated plus-maze test, the elevated plus-maze (manufactured by NeuroScience, Inc.) consisting of closed arms and open arms was used. In the experiment, a rat was placed on an open arm 30 minutes after the drug administration (subcutaneous administration), and the number of entries to the open and closed arms and the time spent in the open arms were measured. The test was conducted for 3 minutes. The rat was assumed to have made entries when all four legs have entered the arm. The ratio of the time spent in the open arms and the ratio of the entries to the open arms were calculated according to the following equations:
Ratio of the time spent in the open arms (%)={(time spent in the open arms)/(total time)}×100
Ratio of the entries to the open arms (%)={(number of entries to the open arms)/(total number of entries)}×100
The vertical axis on the left indicates the ratio of the time spent in the open arms (%) and the ratio of the entries to the open arms (%). The vertical axis on the right indicates the total number of entries. The horizontal axis indicates a control group and treatment groups. Open columns indicate the ratio of the time spent in the open arms (%) and hatched columns indicate the ratio of the entries to the open arms (%). Closed circles indicate the total number of entries. All data are indicated by average ±standard error. In a significance test, the difference was assumed to be significant at a significance level of 5% or less by Dunnett's multiple comparison. In the test, the drug is assumed to have an antianxiety effect when there are an increase in time spent on open arms and an increase in ratio of entries to open arms under administration.

[2] = system: male ICR mice; experiment: Forced swim test in mice (antidepressant effect); assay type: in vivo, mouse; settings: for antidepressant effect: overall conclusion in words, forced swim test
Source text: as §1
Assessment of antidepressant effect by the forced swim test in mice
In the experiment, male ICR mice were used. In the forced swim test, the tank for forced swim used was a transparent cylindrical tank made of plastic (inner diameter: 10 cm, height: 30 cm), and water at 25° C. was contained up to 14 cm in height. A mouse was placed in water, and its swimming time during 2 to 6 minutes after placement was measured. The drug was subcutaneously administered 30 minutes before testing. The vertical axis indicates the swimming time (sec) during the measurement time (4 min). The open column indicates a saline-treated group and the hatched columns indicate Compound 1 treatment groups. All data are indicated by average ±standard error. In a significance test, the difference was assumed to be significant at a significance level of 5% or less by Dunnett's multiple comparison. In the test, the drug is assumed to have an antidepressant effect when there is an increase in swimming time under administration.

[3] = FIG. 1, treatment groups vs saline-treated control, s.c., Dunnett's multiple comparison, 5% level

Structure (SMILES) | antianxiety effect [1] | antidepressant effect [2] | ratio of the entries to open arms [1, 3] | time spent in open arms [1, 3] | swimming time ([2]; FIG. 2, treatment groups vs saline-treated control, s.c., Dunnett's multiple comparison, 5% level)
Oc1cccc([C@]23CCN(CCc4ccccc4)C[C@@H]2Cc2cc4ccccc4nc2C3)c1 (relative stereo) [Compound 6, 2-phenethyl-4aα-(3-hydroxyphenyl)-1,2,3,4,4a,5,12,12aβ-octahydro-quinolino [2,3-g]isoquinoline] | significant antianxiety effects | significant antidepressant effect |  |  | 
CN1CC[C@]2(c3cccc(O)c3)Cc3nc4ccccc4c(N)c3C[C@H]2C1 (relative stereo) [Compound 5, 2-methyl-4aα-(3-hydroxyphenyl)-11-amino-1,2,3,4,4a,5,12,12aβ-octahydro-quinolino,[2,3-g]isoquinoline] | significant antianxiety effects | significant antidepressant effect |  |  | 
Cc1c2c(nc3ccccc13)C[C@@]1(c3cccc(O)c3)CCN(C)C[C@@H]1C2 (relative stereo) [Compound 3, 2-methyl-4aα-(3-hydroxyphenyl)-11-methyl-1,2,3,4,4a,5,12,12aβ-octahydro-quinolino [2,3-g]isoquinoline] | significant antianxiety effects | significant antidepressant effect |  |  | 
CN1CC[C@]2(c3cccc(O)c3)Cc3nc4ccccc4cc3C[C@@H]2C1 [Compound 1, (4aS,12aS)-2-methyl-4a-(3-hydroxyphenyl)-1,2,3,4,4a,5,12,12a-octahydroquinolino [2,3-g]isoquinoline] | confirmed to have an antianxiety effect | confirmed to have an antidepressant effect | dose-dependent significant increase | dose-dependent significant increase | dose-dependent significant increase
